This assay has as its target Sodium channel protein type 9 subunit alpha (Homo sapiens, UniProt Q15858). Briefly: Radioligand Binding Assay. The note with it: pH 7.4; 25 °C.

Sequence of Sodium channel protein type 9 subunit alpha (Q15858 whole entry): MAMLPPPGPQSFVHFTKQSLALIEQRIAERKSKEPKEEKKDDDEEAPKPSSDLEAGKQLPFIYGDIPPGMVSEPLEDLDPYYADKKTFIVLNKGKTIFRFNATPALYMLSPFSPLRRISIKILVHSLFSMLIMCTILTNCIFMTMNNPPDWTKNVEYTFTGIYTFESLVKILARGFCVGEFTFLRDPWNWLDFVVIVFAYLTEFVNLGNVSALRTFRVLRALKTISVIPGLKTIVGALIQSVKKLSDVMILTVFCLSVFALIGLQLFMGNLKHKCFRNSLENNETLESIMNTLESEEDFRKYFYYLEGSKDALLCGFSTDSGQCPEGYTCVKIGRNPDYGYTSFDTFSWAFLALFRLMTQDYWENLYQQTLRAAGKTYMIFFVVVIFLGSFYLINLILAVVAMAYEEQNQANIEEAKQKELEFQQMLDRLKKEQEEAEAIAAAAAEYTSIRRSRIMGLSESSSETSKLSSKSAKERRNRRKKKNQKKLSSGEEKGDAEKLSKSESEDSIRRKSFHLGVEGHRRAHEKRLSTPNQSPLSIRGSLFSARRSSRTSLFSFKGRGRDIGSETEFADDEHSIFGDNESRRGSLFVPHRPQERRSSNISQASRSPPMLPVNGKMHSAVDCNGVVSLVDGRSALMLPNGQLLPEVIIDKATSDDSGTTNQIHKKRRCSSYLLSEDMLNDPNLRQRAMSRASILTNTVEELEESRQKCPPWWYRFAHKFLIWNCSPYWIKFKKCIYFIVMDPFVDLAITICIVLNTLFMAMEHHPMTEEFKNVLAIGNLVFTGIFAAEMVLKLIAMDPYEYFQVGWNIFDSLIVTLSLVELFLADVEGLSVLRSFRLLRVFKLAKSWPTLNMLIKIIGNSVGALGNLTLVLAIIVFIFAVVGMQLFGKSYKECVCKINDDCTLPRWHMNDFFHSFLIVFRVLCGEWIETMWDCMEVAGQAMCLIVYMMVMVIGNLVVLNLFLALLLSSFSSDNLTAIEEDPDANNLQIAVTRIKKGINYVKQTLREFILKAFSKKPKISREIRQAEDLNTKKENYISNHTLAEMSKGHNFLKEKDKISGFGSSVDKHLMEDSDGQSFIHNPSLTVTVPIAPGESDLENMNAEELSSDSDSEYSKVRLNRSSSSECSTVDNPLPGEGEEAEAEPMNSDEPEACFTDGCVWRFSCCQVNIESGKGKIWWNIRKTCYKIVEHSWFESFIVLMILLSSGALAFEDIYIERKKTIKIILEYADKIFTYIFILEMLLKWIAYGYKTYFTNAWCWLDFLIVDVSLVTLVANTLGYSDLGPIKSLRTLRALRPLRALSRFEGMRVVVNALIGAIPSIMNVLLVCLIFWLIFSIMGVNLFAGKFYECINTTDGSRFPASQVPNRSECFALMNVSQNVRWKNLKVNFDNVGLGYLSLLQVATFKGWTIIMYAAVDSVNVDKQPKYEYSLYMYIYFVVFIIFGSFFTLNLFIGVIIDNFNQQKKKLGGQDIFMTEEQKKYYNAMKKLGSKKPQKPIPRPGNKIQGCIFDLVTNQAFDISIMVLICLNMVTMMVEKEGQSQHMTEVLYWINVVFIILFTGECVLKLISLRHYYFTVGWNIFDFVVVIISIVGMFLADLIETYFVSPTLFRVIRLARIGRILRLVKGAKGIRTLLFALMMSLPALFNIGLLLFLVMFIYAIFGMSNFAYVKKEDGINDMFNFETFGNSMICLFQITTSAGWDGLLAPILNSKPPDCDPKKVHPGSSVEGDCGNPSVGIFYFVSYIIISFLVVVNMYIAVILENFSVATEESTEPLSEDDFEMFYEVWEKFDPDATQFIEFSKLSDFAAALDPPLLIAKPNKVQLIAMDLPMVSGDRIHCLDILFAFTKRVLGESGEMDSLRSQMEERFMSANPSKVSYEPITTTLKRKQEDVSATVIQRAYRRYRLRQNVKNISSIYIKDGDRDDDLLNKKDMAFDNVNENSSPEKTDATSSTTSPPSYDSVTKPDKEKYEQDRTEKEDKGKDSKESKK
Procedure: Binding of this radioligand was preformed in 5 mL borosilicate glass test tubes at room temperature. […] Non-specific binding was determined in the presence of 1 uM unlabelled compound. […] [3H]compound bound to filters was quantified by liquid scintillation counting.

For the compound `CS(=O)(=O)NC(=O)c1cc(C2CC2)c(CN2CCC(Oc3ccc(Cl)cc3)CC2)cc1F` [US9694002, 503], the IC50 (in general, the concentration that inhibits the measured activity by half) was 30 nM. `O=C(NS(=O)(=O)C1CC1)c1cc(C2CC2)c(CN2CCC(Oc3ccc(Cl)cc3)CC2)cc1F` [US9694002, 504] gave an IC50 of 16 nM.

The record behind these values is BindingDB's records for patent US9694002 (Genentech Inc, 2017).
